Experimental data: patent US9339564B2, “Ether and alkyl phospholipid compounds for treating cancer and imaging and detection of cancer” (Cellectar, Inc., priority 2009, dated 2016)

Tests used:
[1] = system: solid xenograft and spontaneous human tumor and rodent tumor models; test: Tumor uptake and retention of CLR1404 in tumor models; type: in vivo; settings: over fifty solid xenograft and spontaneous human tumor and rodent tumor models
Text: (§1) We have developed several series of tumor-selective radiolabeled ether and alkyl phospholipid compounds for imaging, characterization, and treatment of malignant tumors. […] Cellular signaling and regulation of phospholipids, including phospholipase-D and its isoforms, as well as Phosphatase and Tensin Homologue Deleted from Chromosome-10 (PTEN) and phosphatidylinositol phosphate (PIPn) pathways, are known to be directly involved in upstream regulation of many key oncogenic pathways. We now have strong evidence that the uptake and retention of our PLE analogs is due at least in part to these upstream regulation and signaling cancer cell pathways.

[2] = system: benign or premalignant lesions or inflammatory lesions; test: Localization of CLR1404 in non-malignant lesions; type: in vivo; settings: stated in contrast to 18F-FDG
Text: as §1

C[N+](C)(C)CCOP(=O)([O-])OCCCCCCCCCCCCCCCCCCc1ccc(I)cc1 [CLR1404, 18-(p-iodophenyl)octadecyl phosphocholine]
uptake and retention in tumors [1]: striking uptake and prolonged selective retention properties
localization in benign, premalignant or inflammatory lesions [2]: does not localize in benign or premalignant lesions or in inflammatory lesions
